Assay results published in paper PMC2861598, “Ligand Binding and Crystal Structures of the Substrate-Binding Domain of the ABC Transporter OpuA” (PLoS ONE, 2010).
Values joined by “and” are separate entries in the source; they are usually repeats but may differ in a detail not shown here. Equal entries are not always repeated. “Also recorded” adds a separate entry of the source. Where two headings read alike, the source gives them in different places.

Assays:
[1] = target: T1, OpuAC (substrate-binding domain of OpuA) (Lactococcus lactis, UniProt Q9RQ05); experiment: Ligand binding to purified OpuAC, intrinsic protein fluorescence (direct titration); conditions: for ΔFmax: pH7.0
T1 sequence (Q9RQ05 320-573): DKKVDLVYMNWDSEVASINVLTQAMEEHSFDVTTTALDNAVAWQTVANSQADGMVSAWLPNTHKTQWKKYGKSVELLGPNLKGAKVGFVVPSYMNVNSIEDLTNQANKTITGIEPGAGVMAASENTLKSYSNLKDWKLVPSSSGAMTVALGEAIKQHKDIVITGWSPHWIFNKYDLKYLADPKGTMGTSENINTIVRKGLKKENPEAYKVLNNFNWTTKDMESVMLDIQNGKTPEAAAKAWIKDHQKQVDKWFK
Description: (§1) Fluorescence spectra were obtained with a Fluorolog®-3 (Jobin Yvon) spectrofluorometer. A quartz-cuvette containing 800 µL of protein sample was incubated for 10 minutes at 25°C under constant stirring before stepwise addition of the substrate (or buffer as control), using a Hamilton syringe pump (Harvard apparatus). Samples were incubated for 5 seconds before the fluorescence signal was collected for 20 seconds to obtain an averaged value at each substrate concentration.
(§2) For the intrinsic protein fluorescence measurements, the excitation and emission wavelengths were 295 and 360 nm (and slit widths of 1 and 5 nm), respectively. To determine the salt dependence of ligand-binding to purified OpuA, the buffer was exchanged to various KPi concentrations (12.5–250 mM), pH 7.0, 20% glycerol and 0.05% DDM, using a NAP10 column (GE Healthcare). Corrections for background fluorescence changes were made by titrations with buffer.
(§3) Fluorescence titrations were analyzed essentially as described by Lanfermeijer. Curve fitting was performed in Origin (OriginLab).

OpuAC [2] = target: T2, OpuAC (Lactococcus lactis, UniProt Q9RQ05); experiment: Competitive inhibition of glycine betaine-induced fluorescence changes; type: binding
T2 sequence (Q9RQ05 320-573): T1 sequence (Q9RQ05 320-573)
Description: as §1, §2, §3

[3] = test system: OpuA reconstituted in proteoliposomes; experiment: Substrate transport in OpuA-containing proteoliposomes, filter-based assay; type: biochemical, Lactococcus lactis; conditions: 14C-labeled substrate, 50 µM (51 µM) or 5 mM, up to 30 min, 200 mM KPi pH 7 external
Description: Proteoliposomes were prepared as described previously by Geertsma et al. with an ATP regenerating system present and using 200 mM KPi, pH 7, as external medium. The transport activity was measured using a filter-based assay as described by Geertsma et al. in a time dependent way (up to 30 min), using a fixed concentration of 50 µM or 5 mM of substrate.

purified OpuA [4] = target: T3, purified OpuA (Lactococcus lactis subsp. lactis, UniProt Q7DAU8); experiment: Glycine betaine binding to purified DDM-solubilized OpuA, intrinsic protein fluorescence; conditions: for Kd / ΔFmax: pH7.0
T3 sequence (Q7DAU8 1-573): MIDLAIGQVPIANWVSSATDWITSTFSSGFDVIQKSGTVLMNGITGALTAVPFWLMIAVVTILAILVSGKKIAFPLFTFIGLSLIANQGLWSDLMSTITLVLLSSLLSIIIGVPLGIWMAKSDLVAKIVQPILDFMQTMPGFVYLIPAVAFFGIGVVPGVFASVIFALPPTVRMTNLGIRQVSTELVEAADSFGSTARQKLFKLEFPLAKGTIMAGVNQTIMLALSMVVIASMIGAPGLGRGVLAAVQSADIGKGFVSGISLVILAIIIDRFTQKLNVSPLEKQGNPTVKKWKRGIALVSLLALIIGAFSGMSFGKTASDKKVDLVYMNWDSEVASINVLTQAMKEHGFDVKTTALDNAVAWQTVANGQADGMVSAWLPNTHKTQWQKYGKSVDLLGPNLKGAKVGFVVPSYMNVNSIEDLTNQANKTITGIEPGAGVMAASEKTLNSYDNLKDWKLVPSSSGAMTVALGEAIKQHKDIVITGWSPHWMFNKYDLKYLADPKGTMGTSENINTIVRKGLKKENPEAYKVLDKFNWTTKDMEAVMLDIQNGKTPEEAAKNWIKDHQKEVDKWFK
T3 sequence (Q9KIF7 1-408 partner): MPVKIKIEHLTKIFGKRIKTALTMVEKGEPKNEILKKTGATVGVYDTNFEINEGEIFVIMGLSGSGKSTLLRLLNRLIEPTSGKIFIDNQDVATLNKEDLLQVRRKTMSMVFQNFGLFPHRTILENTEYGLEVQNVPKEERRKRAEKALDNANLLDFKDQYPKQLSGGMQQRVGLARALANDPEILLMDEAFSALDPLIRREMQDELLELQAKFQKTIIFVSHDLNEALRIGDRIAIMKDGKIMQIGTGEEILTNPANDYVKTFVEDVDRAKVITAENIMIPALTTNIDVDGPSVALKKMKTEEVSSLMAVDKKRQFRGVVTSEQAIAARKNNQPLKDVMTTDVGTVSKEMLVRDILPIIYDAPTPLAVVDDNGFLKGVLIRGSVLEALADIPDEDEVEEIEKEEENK
Description: as §1, §2, §3

purified OpuA [5] = target: T3, purified OpuA; experiment: Filter-based assay with radio-labeled glycine betaine (ammonium sulfate precipitation); type: binding
Description: This method is based on the principle that upon salting-out of the protein (by ammonium sulfate), the substrate remains trapped in the ligand-binding site. For these measurements, purified OpuA in the presence of 0.05% (w/v) n-dodecyl-β-maltopyranoside (DDM) was mixed such that the protein (at a final concentration of 100 µg/mL) was in a buffer composed of 10, 50 or 250 mM KPi pH7.0, 20% glycerol and 0.05% DDM. The binding assays were carried in a volume of 100 µL. […] The mixture was filtered rapidly through 0.45 µm pore-size cellulose nitrate filters. The filters were washed twice with 2 ml ammonium sulfate solution. Subsequently, the filters were placed in an open plastic vial and dried under heating in an oven at 37°C for 2 hours. The radioactivity on the filters was measured via liquid scintillation counting, using emulsifier plus scintillation liquid (Perkin Elmer). Measurements were corrected for background signals and the average of the corrected data was fitted as described under fluorescence measurements.

OpuAC [6] = target: T2, OpuAC; experiment: Isothermal titration calorimetry of glycine betaine binding; conditions: ITC
Description: 200 µL of OpuAC (concentrated to 50 µM in 150 mM KPi, pH 7) was added to the cell. […] Typically, 20 injections of 2 µL volume were made with intervals of 120 seconds between each addition.

OpuAΔSBD = experiment: Ligand binding to OpuAΔSBD; parameters: species or system Lactococcus lactis; conditions: data not shown
OpuAΔCBS = experiment: Ligand binding to OpuAΔCBS; parameters: species or system Lactococcus lactis; conditions: data not shown
purified OpuA [7] = target: T3, purified OpuA; experiment: Glycine betaine binding to purified DDM-solubilized OpuA, intrinsic protein fluorescence; conditions: OpuA solubilized in DDM; over all salt concentrations (10–250 mM KPi); read-out: dissociation constant (Kd)
[8] = target: OpuA in a lipidic environment; parameters: method as in PMID 14609945; conditions: read-out: dissociation constant; cited from earlier work

## C[N+](C)(C)CC(O)CC(=O)[O-] (centres unmarked) [Carnitine]
[1]; ∼0.5 µM OpuAC
  fluorescence response on direct titration: did not reach a stable end-level
OpuAC [2]
  Ki: 65000 ± 11000 µM
[3]
  transport into OpuA-containing proteoliposomes: not taken up

## C[N+]1(C)CCC[C@H]1C(=O)[O-] [Proline betaine]
OpuAC [2]; inhibition of glycine betaine binding, ∼0.5 µM OpuAC
  Ki: 41 ± 8 µM
OpuAC [2]; inhibition of glycine betaine binding, ∼0.5 µM OpuAC, listed as proline betaine
  Ki: ~41 µM

## O=C(O)[C@@H]1CCCN1 [Proline]
[3]
  transport into OpuA-containing proteoliposomes: no accumulation of the proline
[3]; listed as proline
  transport into OpuA-containing proteoliposomes: entered the vesicles slowly but at an equal rate in the proteoliposomes and the liposomes devoid of OpuA

## C[N+](C)(C)CC(=O)[O-] [glycine betaine]
Purified OpuA [4]
  increase of dissociation constant in DDM-solubilized state versus lipidic environment: around 10 fold
Purified OpuA [4]; 12.5 mM KPi
  Kd: 6 ± 0.5 µM
  ΔFmax: 9.9±0.3%
Purified OpuA [4]; 50 mM KPi
  Kd: 6 ± 0.7 µM
  ΔFmax: 10.8±0.4%
Purified OpuA [4]; 250 mM KPi
  Kd: 5.2 ± 0.2 µM
  ΔFmax: 9.3±0.2%
Purified OpuA [4]; over all salt concentrations
  maximal fluorescence change: 9–11%
[1]; 19.6 µM OpuAC in 150 mM KPi pH 7.0
  bound glycine betaine: 0.74 mol glycine betaine per mol of OpuAC
[1]; 19.6 µM OpuAC in 150 mM KPi pH 7.0, data fit
  bound substrate: 14.5 ± 1.6 µM
[1]; OpuAC, 12.5 mM KPi
  ΔFmax: 23.6±1.1%
[1]; OpuAC, 50 mM KPi
  ΔFmax: 23.4±0.9%
[1]; OpuAC, 250 mM KPi
  ΔFmax: 23.1±1.2%
[1]; OpuAC, over all salt concentrations
  maximal fluorescence change: 23–24%
[1]; very high protein concentration
  amount of glycine betaine bound: 0.74 mol/mol OpuAC
Purified OpuA [5]; all salt concentrations
  maximal number of binding sites: ~3 nmol/mg OpuA
Purified OpuA [5]; averaged from duplicate measurements for all salt concentrations (10, 50, 250 mM KPi), 30°C
  Kd: 7.3 µM
OpuAC [6]; 50 µM OpuAC, 150 mM KPi pH 7, 25°C
  glycine betaine bound per mol of OpuAC: 0.7 mol
OpuAC [6]; 25°C
  Gibbs free energy: -7.5 kcal/mol
  enthalpy change (ΔH): -3.8 ± 0.1 kcal/mol
[3]
  transport into OpuA-containing proteoliposomes: transported against a concentration gradient; also recorded: transport against a large concentration gradient
OpuAΔSBD
  glycine betaine binding: did not show any glycine betaine binding
OpuAΔCBS
  effect of deletion of the CBS domains on dissociation constant: did not alter the dissociation constant
Purified OpuA [7]
  Kd: 4 to 6 µM and 5 to 6 µM
[8]
  Kd: ~0.5 µM
